Results taken from patent publication US11040958B2, “Triazole antimicrobial derivative, pharmaceutical composition and use thereof” (priority 2017, dated 2021).

Assays:
[1] = Solubility test in deionized water (HPLC, external calibration); format: physicochemical; settings: deionized water, 25±2°C
Procedure: Experimental condition: 25±2° C.
Dissolving medium: deionized water
Experimental method: 1 mg voriconazole and appropriate amount of each compound were weighed, placed in 1 ml deionized water separately, shaken vigorously for 30 s every 5 mins for 30 mins.

[2] = In vitro metabolic stability in human plasma; format: in vitro ADME; settings: 37°C, compound 10 μM
Procedure: The two reaction systems were set up three samples in parallel, while each sample was taken in an amount of 100 μL at 1 min, 2 mins, 5 mins, 15 mins, and 30 mins after the reaction, added to the centrifuge tube containing 400 μL of 0° C. pre-cooled internal standard working fluid and terminated the reaction. The sample was mixed by vortex for 1 min, centrifuged at 10,000×g for 10 mins in a 4° C. pre-cooled high-speed centrifuge. The supernatant was taken for HPLC detection.

[3] = In vitro metabolic stability in human intestinal S9; format: in vitro ADME; settings: 37°C, S9 1 mg/mL, compound 10 μM, NADPH regeneration system
Procedure: (§1) The two reaction systems were set up three samples in parallel, while each sample was taken in an amount of 100 μL at 1 min, 2 mins, 5 mins, 15 mins, and 30 mins after the reaction, added to the centrifuge tube containing 400 μL of 0° C. pre-cooled internal standard working fluid and terminated the reaction. The sample was mixed by vortex for 1 min, centrifuged at 10,000×g for 10 mins in a 4° C. pre-cooled high-speed centrifuge. The supernatant was taken for HPLC detection. […] Concentration of mother liquor of compounds: 1 mM […] [table]

[4] = In vitro metabolic stability in rat plasma; format: in vitro ADME; settings: 37°C, compound 10 μM
Procedure: The two reaction systems were set up three samples in parallel, while each sample was taken in an amount of 100 μL at 1 min, 2 mins, 5 mins, 15 mins, and 30 mins after the reaction, added to the centrifuge tube containing 400 μL of 0° C. pre-cooled internal standard working fluid and terminated the reaction. The sample was mixed by vortex for 1 min, centrifuged at 10,000×g for 10 mins in a 4° C. pre-cooled high-speed centrifuge. The supernatant was taken for HPLC detection. […] Concentration of mother liquor of compounds: 1 mM […]

[5] = In vitro metabolic stability in rat intestinal S9; format: in vitro ADME; settings: 37°C, S9 1 mg/mL, compound 10 μM, NADPH regeneration system
Procedure: as §1

[6] = Solid stability test (25°C, RH 60%, 30 days); format: physicochemical; settings: 25°C±2°C, relative humidity 60%±2%
[7] = Pharmacokinetics after single intravenous administration in rats (plasma voriconazole); settings: rat, in vivo, 2.5 mg/kg
Summary of the method: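 SD rats (180–220 g, 3 male/3 female per group) given single tail-vein dose of 2.5 mg/kg (as voriconazole). Plasma voriconazole measured in blood sampled at multiple time points post-dose.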

[8] = Pharmacokinetics after single gastrointestinal (gavage) administration in rats (plasma voriconazole); format: in vivo; settings: SD rats, 2.5 mg/kg (calculated as voriconazole)
Procedure: Dosing volume for administration: 10 ml/kg
Solvent medium for administration: except for the positive voriconazole group using CMC-Na, the other groups using normal saline
Route of administration: gavage

[9] = tested on: Candida albicans ATCC10231; experiment: Systemic fungal infection in mice, administration by gavage, survival; format: in vivo; settings: ICR mice, 5 mg/kg (calculated as voriconazole) once daily for 5 days
Procedure: ICR mice, weighing 18-22 g, male, provided by the Hubei Experimental Animal Center.
The standard strain Candida albicans was purchased from the American Type Culture Collection, and the strain number was ATCC10231.
Before the experiment, a small amount of Candida albicans was picked from the SDA medium preserved at 4° C. by inoculation circle, inoculated into 1 ml of YPD culture medium, and cultured at 30° C. while being shaken at 200 rpm for 16 hours to make the fungus in the late stage of exponential growth. Blood cell counting plate was used to count, and the concentration of the broth was adjusted to 1*10^3−5*10^3 CFU/ml with RPMI1640 medium. The Candida albicans monoclone on the SDA plate was picked, inoculated into 1 ml YPD medium, cultured at 35° C., 200 rpm for 16 hours to the late exponential growth phase, 1% of which was then inoculated in fresh medium for 6 hours, centrifuged at 1000×g for 5 mins, washed three times with saline until the supernatant was colorless, while hemocytometer was used to count. The cell concentration was adjusted to 5*10^6/ml. The tail vein injection of 0.1 ml/10 g was carried out to cause a systemic fungal infection in mice. The mice were randomized into groups of 10 each. Voriconazole used was in the form of a suspension prepared with CMC-Na (Shanghai Panhong Chemical Technology Co., Ltd.), while other tested drugs were dissolved in saline and sonicated until clarified for administration. After establishing a systemic fungal infection model in mice for 2 hours, each group was administered by gavage with 5 mg/kg (calculated as voriconazole) drug, with the volume for administration of 0.1 ml/10 g. The mice in the model group were administered 0.1 ml/10 g of 0.9% sodium chloride solution, once daily, for 5 consecutive days. The death situation of the mice was inspected and the survival time was recorded. After a total of 7 days of observation, all dead mice were treated with fire using ethanol.

[10] = tested on: Candida albicans ATCC10231; experiment: Systemic fungal infection in mice, intravenous administration, survival; format: in vivo; settings: ICR mice, tail vein, 5 mg/kg (calculated as voriconazole) once daily for 5 days
Summary of the method: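 Male ICR mice (18-22 g) infected via tail vein with C. albicans ATCC10231 at 5*10^6 cells/ml, 0.1 ml/10 g; groups of 10. From 2 h post-infection, 5 mg/kg (as voriconazole) given i.v. once daily for 5 days, saline vehicle (voriconazole in sulfobutyl ether-β-cyclodextrin); survival time recorded over 7 days.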

SMILES	Solubility [1]	Human plasma T1/2 [2]	Human intestinal S9 T1/2 [3]	Rat plasma T1/2 [4]	Rat intestinal S9 T1/2 [5]	Content increase of total impurity (25° C., placed for 30 days) [6]	AUClast [7]	T1/2 [7]	AUClast [8]	Cmax [8]	T1/2 [8]	survival rate of mice, day 1 [9]	survival rate of mice, day 2 [9]	survival rate of mice, day 3 [9]	survival rate of mice, day 4 [9]	survival rate of mice, day 5 [9]	survival rate of mice, day 6 [9]	survival rate of mice, day 7 [9]	survival rate of mice, day 1 [10]	survival rate of mice, day 2 [10]	also measured
CC(OC(=O)N(C)c1ncccc1COC(=O)CN(C)C)[n+]1cnn(C[C@](O)(c2ccc(F)cc2F)[C@@H](C)c2ncncc2F)c1.Cl.Cl.[Cl-] (some centres unmarked) [QR16045]	>50 mg/mL	8.95 ± 0.12 min	32.97 ± 8.45 min	8.88 ± 0.55 min	27.85 ± 6.58 min	2.23%	8.586 ± 1.856 µg·h/mL	164 ± 46.8 min	7.859 ± 2.256 µg·h/mL	0.562 ± 0.158 µg/mL	155 ± 52.8 min	100%	100%	90%	90%	90%	90%	80%			
CC(O)C(N)C(=O)OCc1cccnc1N(C)C(=O)OC(C)[n+]1cnn(CC(O)(c2ccc(F)cc2F)C(C)c2ncncc2F)c1.Cl.Cl.[Cl-] (centres unmarked) [QR16016]	>50 mg/mL	2.12 ± 1.07 min	15.72 ± 0.98 min	1.95 ± 0.87 min	19.62 ± 3.69 min		10.477 ± 1.854 µg·h/mL	159 ± 52.8 min	8.332 ± 3.254 µg·h/mL	0.885 ± 0.344 µg/mL	134 ± 75 min	100%	100%	90%	90%	90%	90%	80%	100%	100%	survival rate of mice, day 3 [10]: 100%; survival rate of mice, day 4 [10]: 100%; survival rate of mice, day 5 [10]: 100%; survival rate of mice, day 6 [10]: 90%
CC(OC(=O)N(C)c1ncccc1COC(=O)CN)[n+]1cnn(C[C@](O)(c2ccc(F)cc2F)[C@@H](C)c2ncncc2F)c1.[Cl-] (some centres unmarked) [QR16001]	>50 mg/mL	1.56 ± 0.26 min	10.09 ± 1.75 min	1.23 ± 0.45 min	10.15 ± 2.65 min		10.515 ± 1.985 µg·h/mL	128 ± 58.8 min	8.562 ± 1.125 µg·h/mL	0.789 ± 0.362 µg/mL	193 ± 76.8 min	100%	100%	100%	100%	90%	80%	80%	100%	100%	survival rate of mice, day 3 [10]: 100%; survival rate of mice, day 4 [10]: 100%; survival rate of mice, day 5 [10]: 100%; survival rate of mice, day 6 [10]: 100%
CC(OC(=O)N(C)c1ncccc1COC(=O)[C@@H](N)CCCN)[n+]1cnn(C[C@](O)(c2ccc(F)cc2F)[C@@H](C)c2ncncc2F)c1.Cl.Cl.Cl.[Br-] (some centres unmarked) [QR16008]	>50 mg/mL	9.49 ± 1.31 min	30.25 ± 4.90 min	10.58 ± 2.95 min	32.52 ± 7.82 min	1.05%			8.745 ± 2.365 µg·h/mL	0.825 ± 0.256 µg/mL	159 ± 34.8 min	100%	100%	100%	100%	90%	80%	80%			
